Experimental data taken from patent US20030130180A1, “Utilization of an aminopeptidase inhibitor” (priority 2000, published 2003).

Tested on: Karpas cells
Assay: Detection of surface protein combinations of the protein network on untreated (V1) and actinonin-treated (V2) Karpas cells
Format: cell-based
Conditions: for V2 no. of cells / V2 no. of cells In 1/1OOO: actinonin-treated Karpas cells
From the text: Principally, detecting of the surface protein combinations may comprise procedural steps of an automated method for determining molecular classes, molecular groups or molecular parts in a solid or liquid object according to DE 197 09 348 C. In these steps, surface proteins may be examined and measured in one and the same object, i.e. in a sample of immune cells and/or tumor cells for example, by sequentially applying reagent solutions Yn (n=1,2,3, . . . N) by means of an automated apparatus, said procedural steps being: I. taking a first reagent solution Y1 from a vessel containing the reagent solution, II. applying said reagent solution Y1 to the object which is on an object slide, III. allowing the reagent solution to react for an automatically set period of time, IV. recording at least one individual labeling pattern of the object previously labeled with said first reagent solution Y1, V. repeating steps I-IV by applying said first reagent solution Y1 or a second reagent solution Y2 or a mixture of said first and second reagent solutions, and VI. repeating steps I to V with further reagent solutions Yn (n=2,3, . . . N) or a mixture thereof and whereby the labeling distribution patterns obtained in each cycle of the method are turned into a complex molecular combination pattern of the object to be examined by computer-aided image overlay. From this combination pattern, information may be gained on the presence of the above mentioned proteins, thus also allowing detection of the surface protein combinations, if the reagent solutions used contain labeled substances directed against the proteins in question. In numerous examinations, it was possible to identify the 30 cell surface proteins already listed above which belong to a specific protein network controlling the early polarization stages of tumor cells and immune cells. In a further examination, surface protein combinations of this protein network of Karpas cells were detected, both in untreated form and after treatment with the aminopeptidase inhibitor actinonin. For this purpose, two groups V1 and V2 of Karpas cells were formed, with the cells of group Vl remaining untreated, while the cells of group V2 were treated with actinonin. Table 2 lists those surface protein combinations which are present both in the actinonin-treated cells and in the untreated cells. However, this table and the further tables 3 and 4 only give examples of 18 of the 30 proteins, with the detected proteins being designated 1 and the non-detected proteins being designated 0. The proteins are continuously numbered 1 to 18, with the nomenclature being notable from table 1. [table] The cell numbers stated in tables 2 to 4 refer to each 1,000 cells examined in groups V1 and V2. Table 3 lists the surface protein combinations which only occur in the untreated Karpas cells and are never found in the actinonin-treated Karpas cells. The number of protein combinations listed in this table 3 amounts to 131. Finally, table 4 exclusively lists those surface protein combinations which occur exclusively in the actinonin-treated Karpas cells. It may be gathered from tables 2 to 4 that, if one examines merely 18 proteins of the 30 proteins, a total of 394 different surface protein combinations will occur, with a total of 334 different combinations occurring in the untreated cells and a total of 263 different combinations being detected in the treated cells.

## CCCCC[C@H](CC(=O)NO)C(=O)N[C@H](C(=O)N1CCC[C@H]1CO)C(C)C [actinonin]
Protein code No. 54, proteins 1-18 binary 011000001100001100
  V2 no. of cells: 1.5 1/1OOO
Protein code No. 55, proteins 1-18 binary 001000010100001000
  V2 no. of cells: 2.0 1/1OOO
Protein code No. 57, proteins 1-18 binary 101100110111011000
  V2 no. of cells: 2.4 1/1OOO
Protein code No. 58 (first line so numbered), proteins 1-18 binary 001100011101001000
  V2 no. of cells: 1.7 1/1OOO
Protein code No. 58 (second line so numbered), proteins 1-18 binary 000000011101000000
  V2 no. of cells: 2.9 1/1OOO
Protein code No. 59, proteins 1-18 binary 101100010111001000
  V2 no. of cells: 1.5 1/1OOO
Protein code No. 60, proteins 1-18 binary 001000000101001000
  V2 no. of cells: 1.5 1/1OOO
Protein code No. 61, proteins 1-18 binary 000000010111001000
  V2 no. of cells: 1.6 1/1OOO
Protein code No. 62, proteins 1-18 binary 001000000001001000
  V2 no. of cells: 0.6 1/1OOO
Protein code No. 63, proteins 1-18 binary 000000010100001000
  V2 no. of cells: 1.6 1/1OOO
Protein code No. 64, proteins 1-18 binary 000000011001000000
  V2 no. of cells: 2.1 1/1OOO
Protein code No. 65, proteins 1-18 binary 000000000011000000
  V2 no. of cells: 0.7 1/1OOO
Protein code No. 66, proteins 1-18 binary 101000010101011000
  V2 no. of cells: 1.0 1/1OOO
Protein code No. 67, proteins 1-18 binary 001100011111011000
  V2 no. of cells: 1.8 1/1OOO
Protein code No. 68, proteins 1-18 binary 000000000010000000
  V2 no. of cells: 0.1 1/1OOO
Protein code No. 69, proteins 1-18 binary 001000000011000000
  V2 no. of cells: 1.2 1/1OOO
Protein code No. 70, proteins 1-18 binary 010000001100000100
  V2 no. of cells: 1.5 1/1OOO
Surface protein combination No. 93, binary code 011100011101001000
  V2 no. of cells In 1/1OOO: 0.7 1/1OOO
Surface protein combination No. 94, binary code 000000011000000000
  V2 no. of cells In 1/1OOO: 1.0 1/1OOO
Surface protein combination No. 95, binary code 000000001101000000
  V2 no. of cells In 1/1OOO: 1.4 1/1OOO
Surface protein combination No. 96, binary code 001100011101011000
  V2 no. of cells In 1/1OOO: 0.3 1/1OOO
Surface protein combination No. 97, binary code 011000011101001100
  V2 no. of cells In 1/1OOO: 0.7 1/1OOO
Surface protein combination No. 98, binary code 011000011100001100
  V2 no. of cells In 1/1OOO: 0.9 1/1OOO
Surface protein combination No. 99, binary code 000000011101001000
  V2 no. of cells In 1/1OOO: 0.9 1/1OOO
Surface protein combination No. 100, binary code 010000001000000000
  V2 no. of cells In 1/1OOO: 0.3 1/1OOO
Surface protein combination No. 101, binary code 010000011101000000
  V2 no. of cells In 1/1OOO: 0.5 1/1OOO
Surface protein combination No. 102, binary code 001100010101011100
  V2 no. of cells In 1/1OOO: 0.6 1/1OOO
Surface protein combination No. 103, binary code 011000011001000000
  V2 no. of cells In 1/1OOO: 0.7 1/1OOO
Surface protein combination No. 104, binary code 001000001001000000
  V2 no. of cells In 1/1OOO: 0.8 1/1OOO
Surface protein combination No. 105, binary code 000000010111000000
  V2 no. of cells In 1/1OOO: 0.9 1/1OOO
Surface protein combination No. 107, binary code 000100010001001000
  V2 no. of cells In 1/1OOO: 0.2 1/1OOO
Surface protein combination No. 109, binary code 000100000000000000
  V2 no. of cells In 1/1OOO: 0.6 1/1OOO
Surface protein combination No. 110, binary code 011000011111001000
  V2 no. of cells In 1/1OOO: 0.8 1/1OOO
Surface protein combination No. 111, binary code 001000000100000000
  V2 no. of cells In 1/1OOO: 0.8 1/1OOO
Surface protein combination No. 112, binary code 101000010111001000
  V2 no. of cells In 1/1OOO: 0.2 1/1OOO
Surface protein combination No. 113, binary code 011000011111011000
  V2 no. of cells In 1/1OOO: 0.2 1/1OOO
Surface protein combination No. 114, binary code 011000001100000000
  V2 no. of cells In 1/1OOO: 0.2 1/1OOO
Surface protein combination No. 115, binary code 001000000111001000
  V2 no. of cells In 1/1OOO: 0.3 1/1OOO
Surface protein combination No. 116, binary code 101100010101001000
  V2 no. of cells In 1/1OOO: 0.6 1/1OOO
Surface protein combination No. 117, binary code 101100010011011000
  V2 no. of cells In 1/1OOO: 0.6 1/1OOO
Surface protein combination No. 118, binary code 101100110111011100
  V2 no. of cells In 1/1OOO: 0.7 1/1OOO
Surface protein combination No. 119, binary code 000000010010000000
  V2 no. of cells In 1/1OOO: 0.1 1/1OOO
Surface protein combination No. 120, binary code 011100011111011000
  V2 no. of cells In 1/1OOO: 0.2 1/1OOO
Surface protein combination No. 121, binary code 001000011011001000
  V2 no. of cells In 1/1OOO: 0.2 1/1OOO
Surface protein combination No. 122, binary code 011000001100000100
  V2 no. of cells In 1/1OOO: 0.3 1/1OOO
Surface protein combination No. 123, binary code 000000001100001000
  V2 no. of cells In 1/1OOO: 0.3 1/1OOO
Surface protein combination No. 124, binary code 110000001100001100
  V2 no. of cells In 1/1OOO: 0.5 1/1OOO
Surface protein combination No. 125, binary code 010000011100001000
  V2 no. of cells In 1/1OOO: 0.5 1/1OOO
Surface protein combination No. 126, binary code 001000110111011000
  V2 no. of cells In 1/1OOO: 0.5 1/1OOO
Surface protein combination No. 127, binary code 001000011111000000
  V2 no. of cells In 1/1OOO: 0.5 1/1OOO
Surface protein combination No. 128, binary code 111000001100001100
  V2 no. of cells In 1/1OOO: 0.7 1/1OOO
Surface protein combination No. 129, binary code 011000011100001000
  V2 no. of cells In 1/1OOO: 0.7 1/1OOO
Surface protein combination No. 130, binary code 101100010101011100
  V2 no. of cells In 1/1OOO: 0.2 1/1OOO
Surface protein combination No. 131, binary code 101000010101001000
  V2 no. of cells In 1/1OOO: 0.3 1/1OOO
Surface protein combination No. 134, binary code 010000011100001100
  V2 no. of cells In 1/1OOO: 0.5 1/1OOO
Surface protein combination No. 135, binary code 010000011100000000
  V2 no. of cells In 1/1OOO: 0.5 1/1OOO
Surface protein combination No. 136, binary code 001100010101001100
  V2 no. of cells In 1/1OOO: 0.5 1/1OOO
Surface protein combination No. 137, binary code 001100000000001000
  V2 no. of cells In 1/1OOO: 0.5 1/1OOO
Surface protein combination No. 138, binary code 000000001001001000
  V2 no. of cells In 1/1OOO: 0.6 1/1OOO
Surface protein combination No. 139, binary code 011000001101000000
  V2 no. of cells In 1/1OOO: 0.1 1/1OOO
Surface protein combination No. 140, binary code 000000000011001000
  V2 no. of cells In 1/1OOO: 0.1 1/1OOO
Surface protein combination No. 141, binary code 101000010111011100
  V2 no. of cells In 1/1OOO: 0.2 1/1OOO
Surface protein combination No. 142, binary code 001100000101001000
  V2 no. of cells In 1/1OOO: 0.2 1/1OOO
Surface protein combination No. 143, binary code 011100011111001000
  V2 no. of cells In 1/1OOO: 0.3 1/1OOO
Surface protein combination No. 144, binary code 001100010111000000
  V2 no. of cells In 1/1OOO: 0.3 1/1OOO
Surface protein combination No. 145, binary code 001000000100001000
  V2 no. of cells In 1/1OOO: 0.3 1/1OOO
Surface protein combination No. 146, binary code 011000011001001000
  V2 no. of cells In 1/1OOO: 0.5 1/1OOO
Surface protein combination No. 147, binary code 111100011100011100
  V2 no. of cells In 1/1OOO: 0.1 1/1OOO
Surface protein combination No. 148, binary code 110000001100011100
  V2 no. of cells In 1/1OOO: 0.1 1/1OOO
Total over the 60 combinations occurring exclusively in actinonin-treated Karpas cells
  V2 No. of cells In 1/1000, total: 9.1 1/1000
